The results in this text go back to the NIST ThermoML archive (doi:10.1016/j.fluid.2012.11.030).

The conditions of series [1]: Crystal; DTA.
A short description of series [2]: Molar enthalpy of transition or fusion. The settings on record: Crystal; DSC.

Numbers after ± are expanded uncertainties.

With `CCCCCCCCCCCC(=O)OCC` [ethyl dodecanoate], the Normal melting temperature in series [1] was found to be 0.1 ± 0.7 °C. Further, in series [2], the “Molar enthalpy of transition or fusion” value was 9.52 ± 0.263 kcal/mol.

With `CCCCCCCCCCCCCCCC(=O)OCC` [ethyl hexadecanoate], in series [1], the Normal melting temperature was found to be 25.08 ± 0.7 °C. Moreover, in series [2], the “Molar enthalpy of transition or fusion” value was determined as 13.3 ± 0.359 kcal/mol.

For `CCCCCCCC/C=C\CCCCCCCC(=O)OCC` [ethyl (Z)-9-octadeceneoate], in series [1], the Normal melting temperature is -19.06 ± 0.7 °C. The “Molar enthalpy of transition or fusion” value in series [2] stood at 11.4 ± 0.311 kcal/mol.
